How the values were obtained:
[1] = test system: osteoblastic cells derived from murine calvaria; test: Etoposide-induced apoptosis of osteoblastic cells, trypan blue uptake; format: cell-based
Description: Osteoblastic cells derived from murine calvaria were pretreated with the sterols for 1 hour before the addition of the pro-apoptotic agent, etoposide. Apoptosis was determined after 6 hours by trypan blue uptake (Jilka et al, J. Bone and Min. Res. 13:793:802, 1998). * indicates p<0.05 versus etoposide alone, by analysis of variance (ANOVA) (Student-Newman-Keuls method).
Osteoblastic cells derived from murine calvaria were pretreated for 1 hour with the pure receptor antagonist ICI182,780 (10^−7 M) before the addition of the test agents (10^−8 M). Apoptosis was induced and quantified as described in FIG. 3. * indicates p<0.05 versus etoposide alone, by ANOVA (Student-Newman-Keuls method).
In this experiment, osteoblastic cells were derived from murine calvaria and were pretreated with the sterols for 1 hour before the addition of the pro-apoptotic agent, etoposide.
In these experiments, cells were pretreated with the indicated concentrations of the various compounds for 1 hour, in the absence or presence of the androgen receptor antagonist flutamide, before the addition of the proapoptotic agent etoposide. Apoptosis was determined after 6 hours by trypan blue uptake as described in FIG. 3.

[2] = test system: MLO-Y4 osteocytic cells; test: Etoposide-induced apoptosis of MLO-Y4 osteocytic cells, trypan blue uptake; format: cell-based, murine
Description: Cells were pretreated with the indicated concentrations of the compounds for 1 hour before the addition of the pro-apoptotic agent etoposide. Apoptosis was determined after 6 hour by trypan blue uptake as described in FIG. 3. * indicates p<0.05 versus etoposide alone, by ANOVA (Student-Newman-Keuls method).
MLO-Y4 cells were pretreated for 1 hour with the pure receptor antagonist ICI182,780 (10^−7 M) before the addition of the test agents (10^−8 M). Apoptosis was induced and quantified as described in FIG. 3. * indicates p<0.05 versus etoposide alone, by ANOVA (Student-Newman-Keuls method).
In this experiment, MLO-Y4 cells were pretreated with the indicated concentrations of the various compounds for 1 h before the addition of the pro-apoptotic agent, etoposide. Apoptosis was determined after 6 h by trypan blue uptake as described in FIG. 3.

[3] = test system: wild type HeLa cells; test: Etoposide-induced apoptosis in wild type HeLa cells; format: cell-based, human; details: 10^−8 M, 1 h; etoposide 5×10^−5 M, 6 hour
From the text: (§1) CMV promoter alone and CMV promoter-driven cDNA for mERα or mErβ were stably transfected into HeLa cells. […] Cells were trypsinized, pelleted and trypan blue positive cells enumerated.
(§2) In this experiment, instead of calvaria cells, human HeLa cells which contain undetectable, if any, estrogen receptor were used. HeLa cells were stably transfected with either a CMV promoter-driven cDNA for the murine estrogen receptor-alpha (mERα) or a CMV promoter-driven cDNA for the murine estrogen receptor-beta (mERβ). […] Cells were trypsinized, pelleted and trypan blue positive cells were enumerated.

[4] = target: T1, murine estrogen receptor-alpha (mERα) (Mus musculus, UniProt P19785); test: Etoposide-induced apoptosis in HeLa cells stably transfected with mERα; format: cell-based, human; details: 10^−8 M, 1 h; etoposide 5×10^−5 M, 6 hour
T1 construct: expressed in transfected cells
T1 sequence (P19785 1-599): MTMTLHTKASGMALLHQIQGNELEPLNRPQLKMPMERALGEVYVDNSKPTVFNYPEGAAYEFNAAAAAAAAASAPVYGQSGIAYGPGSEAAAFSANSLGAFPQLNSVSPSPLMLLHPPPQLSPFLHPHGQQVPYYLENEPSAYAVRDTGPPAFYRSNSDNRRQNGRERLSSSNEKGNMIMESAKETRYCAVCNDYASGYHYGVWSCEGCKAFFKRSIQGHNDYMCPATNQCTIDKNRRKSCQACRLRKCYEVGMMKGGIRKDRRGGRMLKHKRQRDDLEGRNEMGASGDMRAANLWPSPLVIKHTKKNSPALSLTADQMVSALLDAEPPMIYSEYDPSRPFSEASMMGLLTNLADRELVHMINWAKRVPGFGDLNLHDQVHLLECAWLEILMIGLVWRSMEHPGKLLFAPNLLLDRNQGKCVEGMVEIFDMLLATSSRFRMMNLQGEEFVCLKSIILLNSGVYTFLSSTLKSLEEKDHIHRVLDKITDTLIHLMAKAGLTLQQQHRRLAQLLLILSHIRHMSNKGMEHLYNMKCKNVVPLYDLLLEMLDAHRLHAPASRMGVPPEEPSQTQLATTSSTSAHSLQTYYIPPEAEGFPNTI
From the text: as §1, §2

[5] = target: T2, murine estrogen receptor-beta (mERβ) (Mus musculus, UniProt O08537); test: Etoposide-induced apoptosis in HeLa cells stably transfected with mERβ; format: cell-based, human; details: 10^−8 M, 1 h; etoposide 5×10^−5 M, 6 hour
T2 construct: expressed in transfected cells
T2 sequence (O08537 whole entry): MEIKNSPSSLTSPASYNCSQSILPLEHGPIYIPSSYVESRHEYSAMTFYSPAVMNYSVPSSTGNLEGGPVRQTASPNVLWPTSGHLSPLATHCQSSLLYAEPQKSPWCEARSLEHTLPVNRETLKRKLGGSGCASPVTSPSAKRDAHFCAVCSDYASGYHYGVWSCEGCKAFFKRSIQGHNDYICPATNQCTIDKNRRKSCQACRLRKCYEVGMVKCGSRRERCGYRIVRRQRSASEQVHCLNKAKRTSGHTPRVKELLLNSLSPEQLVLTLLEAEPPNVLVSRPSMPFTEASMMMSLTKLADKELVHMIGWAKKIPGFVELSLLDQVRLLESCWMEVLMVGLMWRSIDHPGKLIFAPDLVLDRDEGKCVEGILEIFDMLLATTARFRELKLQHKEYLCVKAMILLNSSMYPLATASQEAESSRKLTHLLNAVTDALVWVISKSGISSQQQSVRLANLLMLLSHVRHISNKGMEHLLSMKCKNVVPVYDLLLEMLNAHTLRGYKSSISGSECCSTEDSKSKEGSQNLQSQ
From the text: as §1, §2

[6] = test system: extracellular signal regulated kinases (ERKs) 1 and 2; test: Western blot of phosphorylated ERK1/2 in MLO-Y4 cells; format: cell-based, murine
Description: (§3) MLO-Y4 osteocytic cells were incubated for 25 minutes in serum -free medium. […] Cell lysates were prepared and proteins were separated by electrophoresis in polyacrylamide gels and transferred to PVDF membranes. Western blotting was performed using a specific antibody recognizing phosphorylated ERKs 1 and 2, followed by reblotting with an antibody recognizing total ERKs. Blots were developed by enhanced chemiluminescence.
as §3, with “MLO-Y4” for “MLO-Y4 osteocytic”, “serum-free medium in the presence or absence of 50 μM PD98059.” for “serum -free medium.”
as §3, with “In this experiment, MLO-Y4” for “MLO-Y4”, “serum-free” for “serum -free”, “extracellular signal regulated kinases” for “ERKs”, “extracellular signal regulated kinases.” for “ERKs.”, “chemiluminescence. […] This effect is too rapid to be accounted for by the classical mechanism of estrogen action.” for “chemiluminescence.”
as §3, with “In this experiment, MLO-Y4” for “MLO-Y4”, “serum-free medium in the presence or absence of 50 μM PD98059.” for “serum -free medium.”, “extracellular signal regulated kinases” for “ERKs”, “extracellular signal regulated kinases.” for “ERKs.”

C[C@@]12CCC[C@H]1[C@@H]1CCc3cc(O)ccc3[C@H]1CC2 [estratriene-3-ol]
potency in inhibiting apoptosis relative to 17β estradiol [1]: as potent a s 17β estradiol
inhibition of etoposide-induced osteoblastic cell apoptosis ([1]; pretreated 1 hour before etoposide, apoptosis after 6 hours by trypan blue uptake): inhibition of etoposide-induced osteoblastic cell apoptosis was demonstrated
anti-apoptotic effect on osteoblastic cells after pretreatment with ICI182,780 ([1]; test agent 10^−8 M, ICI182,780 10^−7 M, 1 h pretreatment): abrogated
antiapoptotic effect on osteocytes after pretreatment with ICI182,780 ([2]; ICI182,780 10^−7 M, 1 h pretreatment): abrogated
inhibition of etoposide-induced apoptosis of osteocytic cell line ([2]; MLO-Y4, pretreated 1 h before etoposide, apoptosis after 6 h): dose-dependently inhibited
effect on etoposide-induced apoptosis of wild type HeLa cells [3]: none of the three compounds had any effect
inhibition of etoposide-induced apoptosis in HeLa cells transfected with estrogen receptor α [4]: potently inhibited
inhibition of etoposide-induced apoptosis in HeLa cells transfected with estrogen receptor β [5]: potently inhibited
activation (phosphorylation) of ERKs ([6]; 10^−8 M, 5, 15 or 30 minutes): activated
ability to activate ERKs in the presence of PD98059 ([6]; 10^−8 M, 5 minutes, 50 μM PD98059): abrogated

— patent publication US20040224884A1, “Methods of screening for apoptosis-controlling agents for bone anabolic therapies and uses thereof” (priority 1998, published 2004)
